Consider two compounds from patent publication US10058100B2, “Hydrogen sulfide releasing compounds and their use” (THE UNIVERSITY OF EXETER, priority 2011, dated 2018).

The subject of assay [1] is spontaneously hypertensive (SHR) rats. Briefly: Blood pressure, heart rate and breathing rate of anaesthetised SHR rats. In kind it is in vivo, rat. To be noted: Wistar or SHR rats, Na2S, summary statement, dose not given. As for the experimental part: (§1) The catheter was inserted into the right jugular vein of male wistar rats or male spontaneously hypertensive (SHR) rats so as to reach the right atrium. Anesthesia (ZOLELIT, VIRBAC, 40 mg/kg to leg) and Xylazine 2%. AP39 solutions were prepared in 4 μl DMSO then mixed with 100 μl Krebs solution and immediately applied for 10 sec. (FIGS. 20, 21 and 22).
(§2) Blood pressure, heart rate and breathing rate were all measured at the same time, in accordance with Ling et al., 2008 Circulation 117 2351-2360.

For assay [2], the system named is anaesthetised Wistar rats. Briefly: Blood pressure, heart rate and breathing rate of anaesthetised Wistar rats. In kind it is in vivo, rat. To be noted: anaesthetised Wistar rats, 3 μM/kg Na2S injected, FIG. 20. The procedure:
The mean arterial blood pressure (MAP) of anaesthetised Wistar rats was measured by a pressure transducer in the carotid artery. In ex vivo experiments, effects of AP39 were studied on noradrenaline precontracted rat aortic rings (see below). The single channel properties of intracellular chloride channels from rat heart were studied using the bilayer lipid membrane method (see below).
as §1, §2

For assay [3], the system named is HMEC. Briefly: Mitochondrial oxidative stress measurements (MitoSox Red). The assay is classed as cell-based, human. The settings on record: GYY4137 100 μM. The procedure: HMEC were incubated with H2S donor compounds for 5 hrs then the oxidants H2O2, SIN-1 or […] added for 2 hrs. We used a mitochondria-selective oxidant probe MitoSox Red (final concentration, 5 μM) to detect mitochondria-derived oxidant species by fluorescence using a Gemini M2e microplate reader (excitation wavelength 510 nm, emission wavelength, 580 nm). The method was performed in accordance with the method described by M. Whiteman et al (Meths. Mol. Biol., 2008, 476, 29-50) and R. A. Quintanilla et al (J Biol Chem., 2008, 284, 18754-18766).

The test system of assay [4] is HMEC. Briefly: Intracellular oxidative stress measurements (DCFDA assay). The assay is classed as cell-based, human. As for the experimental part:
HMEC were incubated with H2S donor compounds for 5 hrs then H2O2, […] or SIN-1 were added for 2 hrs. Intracellular oxidative stress was then assessed using dichlorofluorescein diacetate (added at a final concentration of 10 μM) and fluorescence detected using a Gemini M2e microplate reader at 37° C. (excitation wavelength, 488 nm, emission wavelength 525 nm). The method was performed in accordance with the method described by M. Whiteman et al (Meths. Mol. Biol., 2008, 476, 29-50).

The subject of assay [5] is HMEC. Briefly: Cell death induced by inhibitors of endogenous H2S synthesis (AOAA, PAG). In kind it is cell-based, human. The settings on record: GYY4137 100 μM, FIGS. 5-7, p<0.001. The text has this:
In the data shown in FIGS. 5 to 7, ###=p<0.001 compared to the control; ***=p<0.001 compared to inhibitors.

The subject of assay [6] is HMEC. Briefly: Mitochondrial membrane potential (ΔΨm), tetramethylrhodamine methyl ester. The assay is classed as cell-based, human. To be noted: H2O2, SIN-1 or 4-HNE; GYY4137 100 μM, FIG. 13. The procedure:
HMEC were incubated with H2S donor compounds for 5 hrs followed by the addition of oxidants SIN-1 (500 μM), H2O2 (50 μM) or […] (10 μM) for 24 hrs. After this time the mitochondria-specific potentiometric dye tetramethylrhodamine methyl ester (200 nM) was added and fluorescence was determined using a Gemini M2e microplate reader (excitation wavelength 548 nm, emission wavelength 573 nm). The method was performed in accordance with the method described by M. Whiteman et al (FASEB J, 2004, 18, 1395-1397).

In another assay the test system is cancer. To be noted: in vitro and in vivo; cited from earlier work.

“Also recorded” adds a separate entry of the source.

Take `[Na+].[Na+].[S-2]` [Na2S, reference compound]: in assay [1], the blood pressure entry is reported as “did not reduce blood pressure” and the heart rate entry was “did not decrease heart rate”. In assay [2], the blood pressure entry is reported as “no effect; also recorded: not observed”, the breathing rate entry was “no effect” and the heart rate entry is given as “no effect; also recorded: not observed”.
For the compound “morpholin-4-ium 4-methoxyphenyl(morpholino) phosphinodithioate [GYY4137, reference compound]”, the “mitochondrial superoxide formation induced by 4-HNE (MitoSOX red)” value in the assay on HMEC [3] (4-HNE 10 μM, FIG. 16) is on record as “reduced”. Also, in the assay with HMEC [3] (H2O2 50 μM, FIG. 17), the “mitochondrial superoxide formation induced by H2O2 (MitoSOX red)” value is given as “reduced”. Also, the “4-HNE-derived intracellular oxidant species (DCFDA assay)” value with HMEC [4] (GYY4137 100 μM, FIGS. 14 and 15) is “significantly reduced; also recorded: significantly decreased”. Further, the “time dependent increase in intracellular oxidative stress (DCFDA assay)” value in the assay on HMEC [4] (pretreatment with GYY4137 100 μM, FIG. 15) is given as “reduced”. In the assay on HMEC [5], the “AOAA, PAG and AOAA/PAG induced cell death” value was “significantly inhibited”. Further, the “oxidant-induced mitochondrial membrane potential (Δψm) collapse” value with HMEC [6] is reported as “inhibition”. Also, the anti-cancer effects result in the assay with cancer is on record as “anti-cancer effects”.
